Results reported in patent US20230040909A1 (priority 2019, published 2023).
Converted amounts (≈) assume the structure as drawn. Like-named read-outs stand apart in the source and are kept apart here.

Columns and labels:
[1] = system: Mycobacterium abscessus; test: M. ab_ATCC MIC MHII; type: cell-based
Text: The procedure described in Franz 2017 was used to generate the data shown in column 5 of Table 4.

[2] = VERO cell cytotoxicity; type: cell-based; conditions: African green monkey, VERO cells
Text: The procedures described in Falzari 2005 were used to generate the data shown in column 2 of Table 4.

[3] = system: M. tb H37Rv; test: microbe, parasite or virus in culture; type: cell-based, Mycobacterium tuberculosis; conditions: Mycobacterium tuberculosis, H37RV; for MIC: read-out: M. tb H37Rv: MIC-MABA
[4] = system: M. tb H37Rv; test: microbe, parasite or virus in culture; type: cell-based; conditions: Mycobacterium tuberculosis; for MIC: read-out: M. tb H37Rv: MIC-LORA
[5] = Mycobacteroides abscessus; read-out: M. ab_ATCC: MIC MHII: MIC

Structure (SMILES)	MIC [1, 5] [µg/mL]	IC50 [2] [µg/mL]	MIC [3] [µg/mL]	MIC [4] [µg/mL]	MIC ([1]; Mycobacteroides abscessus, read-out: M. ab_ATCC: MIC MHII: MIC) [µg/mL]	inhibition at 20 µg/mL ([4]; at 20 μg/mL, read-out: M. tb H37Rv: MIC-LORA: Comment (% inhibition)) [%]	inhibition at 1 µg/mL ([3]; at 1 ug/mL, read-out: M. tb H37Rv: MABA % inhibition) [%]
Cc1c(C(=O)NC2CC[Si](C)(C)CC2)[nH]c2cc(Cl)cc(Cl)c12 [MPL-334, 4,6-dichloro-N-(1,1-dimethylsilinan-4-yl)-3-methyl-1H-indole-2-carboxamide]	> 64	> 20	< 0.004	> 20	–	–	–
C[Si]1(C)CCCC(NC(=O)c2cc3c(C(F)(F)F)cc(C(F)(F)F)cc3[nH]2)CC1 (stereo not drawn) [MPL-324, N-(1,1-dimethylsilepan-4-yl)-4,6-bis(trifluoromethyl)-1H-indole-2-carboxamide]	> 64	> 20	0.0154 (≈ 0.0353 µM)	> 20	–	–	–
C[Si]1(C)CCCC(NC(=O)c2cc3c(C(F)(F)F)cc(C(F)(F)F)cc3[nH]2)CCC1 [MPL-326, N-(1,1-dimethylsilocan-5-yl)-4,6-bis(trifluoromethyl)-1H-indole-2-carboxamide]	> 64	15.4 (≈ 34.2 µM)	0.0305 (≈ 0.0677 µM)	> 20	–	–	–
Cc1cc(F)c2cc(C(=O)NC3CC[Si](C)(C)CC3)[nH]c2c1 [MPL-470, N-(1,1-dimethylsilinan-4-yl)-4-fluoro-6-methyl-1H-indole-2-carboxamide]	> 64	> 20	0.007 (≈ 0.022 µM)	> 20	–	–	–
CC(C)Oc1cc(F)cc2[nH]c(C(=O)NC3CC[Si](C)(C)CC3)cc12 [MPL-383, N-(1,1-dimethylsilinan-4-yl)-6-fluoro-4-isopropoxy-1H-indole-2-carboxamide]	> 64	> 20	0.0148 (≈ 0.0408 µM)	> 20	–	–	–
C[Si]1(C)CC[C@@H](NC(=O)c2cc3c(Cl)cc(Cl)cc3[nH]2)C1 (single isomer, unassigned) [MPL-399A]	0.125 (≈ 0.366 µM)	> 64	0.03 (≈ 0.0879 µM)	–	–	–	–
Cc1cc(C)c2cc(C(=O)NC3CC[Si](C)(C)CC3)[nH]c2c1 [MPL-317, N-(1,1-dimethylsilinan-4-yl)-4,6-dimethyl-1H-indole-2-carboxamide]	0.062 (≈ 0.197 µM)	> 20	0.031 (≈ 0.0986 µM)	> 20	–	–	–
O=C(NC1CC[Si]2(CCCC2)CC1)c1cc2c(Cl)cc(Cl)cc2[nH]1 [MPL-252, 4,6-dichloro-N-(5-silaspiro[4.5]decan-8-yl)-1H-indole-2-carboxamide]	64 (≈ 168 µM)	> 20	0.014 (≈ 0.0367 µM)	–	–	–	–
Cc1cc(C)c2cc(C(=O)NC3CC[Si](C)(C)C3)[nH]c2c1 (racemic) [MPL-296, N-(1,1-dimethylsilolan-3-yl)-4,6-dimethyl-1H-indole-2-carboxamide]	0.062 (≈ 0.206 µM)	13.8 (≈ 45.9 µM)	0.0151 (≈ 0.0503 µM)	2.3 (≈ 7.65 µM)	–	–	–
C[Si]1(C)CCC(NC(=O)c2cc3c(C(F)(F)F)cc(C(F)(F)F)cc3[nH]2)CC1 [MPL-336, N-(1,1-dimethylsilinan-4-yl)-4,6-bis(trifluoromethyl)-1H-indole-2-carboxamide]	–	> 20	0.0306 (≈ 0.0724 µM)	> 20	> 64	–	–
C[Si]1(C)CC[C@H](NC(=O)c2cc3c(Cl)cc(Cl)cc3[nH]2)C1 (single isomer, unassigned) [MPL-399B]	0.125 (≈ 0.366 µM)	52 (≈ 152 µM)	0.003 (≈ 0.00879 µM)	–	–	–	–
Cc1cc(C)c2cc(C(=O)NC3CCC[Si](C)(C)CC3)[nH]c2c1 (stereo not drawn) [MPL-262, N-(1,1-dimethylsilepan-4-yl)-4,6-dimethyl-1H-indole-2-carboxamide]	0.5 (≈ 1.52 µM)	–	0.009 (≈ 0.0274 µM)	16 (≈ 48.7 µM)	–	–	–
O=C(NC1CC[Si]2(CCCCC2)CC1)c1cc2c(Cl)cc(Cl)cc2[nH]1 [MPL-257, 4,6-dichloro-N-(6-silaspiro[5.5]undecan-3-yl)-1H-indole-2-carboxamide]	> 64	–	0.0045 (≈ 0.0114 µM)	> 20	–	68	–
CC(CC[Si](C)(C)C)NC(=O)c1cc2c(Cl)cc(Cl)cc2[nH]1 (stereo not drawn) [MPL-360, 4,6-dichloro-N-(1-methyl-3-trimethylsilyl-propyl)-1H-indole-2-carboxamide]	–	15.4 (≈ 43.1 µM)	–	> 20	–	–	87
